# Data as given in patent publication US20250152616A1, “COMPOSITIONS FOR AND METHODS OF TREATING, PREVENTING, AND/OR MITIGATING PAIN” (Duke University, priority 2022, published 2025).
# Tests used:
# [1] = test system: dissociated DRG neurons; test: Fura-2 calcium imaging of dissociated DRG neurons stimulated with capsaicin; assay type: cell-based, mouse
# Excerpt: DRG were isolated from mice using a modified version of the previously described protocol (Perner C, et al. (2021) STAR Protoc. 2:100333). Briefly, mice were euthanized and dosed in 70% ethanol to prevent fur contamination. Mice were positioned prone, and an incision was made along the spine from the neck to the base of the tail. Under a dissecting microscope, the surrounding soft tissue of the spinal column was removed from the dorsal side by Friedman-Pearson Rongeurs (Fine Science Tools, Foster City, CA, Cat #16021-14) from the mid thoracic region to the lumbosacral joint. The vertebral bone surrounding the DRG was gently crushed and removed with rongeurs exposing the spinal cord. The DRG were carefully extracted near the foramen between the vertebral levels. L3 and L4 DRG were collected for analyses. Dissected DRG were placed directly into ice-cold DMEM-F12 medium (ThermoFisher, Cat #11320033) for in vitro culture, Trizol (ThermoFisher, Cat #15596018) for PCR analyses, or 4% PFA for histology. For cell culture experiments, collected DRG were digested in digestion solution comprised of collagenase type II (Worthington, Lakewood, NJ, Cat #LS004176) and dispase (1.5 mg/mL each) dissolved in DMEM/F12. DRG were agitated in a digestion solution on an orbital shaker at 60 rpm and 37° C. for 20 minutes and repeated thrice with fresh digestion solution. Next, the digestion solution was replaced with trypsin-EDTA (0.025%) in DMEM/F12 and incubated for an additional 15 min to disrupt the remaining cell-to-cell adhesions. The solution was then replaced with DMEM/F12 and FBS (1:3) to neutralize trypsin. DRG were triturated to create a cell suspension and gently layered onto 15% bovine serum albumin (BSA) solution without mixing and centrifuged for 6 min at 280 g with minimal acceleration and no deceleration to separate non-neuronal cells and debris (Owen D E, et al. (2012) Methods Mol Biol. 846:179-187). […]
# Intracellular cytosolic Ca^2+ was evaluated by Fura-2 loaded DRG neurons (Khomula E V, et al. (2019) J Neurosci. 39:7061-7073). […]
# [2] = test system: dissociated DRG neurons; test: FluoVolt membrane potential imaging of dissociated DRG neurons; assay type: cell-based, mouse; conditions: 1 day NGF followed by adenosine treatment; capsaicin stimulation
# Excerpt: DRG were isolated from mice using a modified version of the previously described protocol (Perner C, et al. (2021) STAR Protoc. 2:100333). Briefly, mice were euthanized and dosed in 70% ethanol to prevent fur contamination. Mice were positioned prone, and an incision was made along the spine from the neck to the base of the tail. Under a dissecting microscope, the surrounding soft tissue of the spinal column was removed from the dorsal side by Friedman-Pearson Rongeurs (Fine Science Tools, Foster City, CA, Cat #16021-14) from the mid thoracic region to the lumbosacral joint. The vertebral bone surrounding the DRG was gently crushed and removed with rongeurs exposing the spinal cord. The DRG were carefully extracted near the foramen between the vertebral levels. L3 and L4 DRG were collected for analyses. Dissected DRG were placed directly into ice-cold DMEM-F12 medium (ThermoFisher, Cat #11320033) for in vitro culture, Trizol (ThermoFisher, Cat #15596018) for PCR analyses, or 4% PFA for histology. For cell culture experiments, collected DRG were digested in digestion solution comprised of collagenase type II (Worthington, Lakewood, NJ, Cat #LS004176) and dispase (1.5 mg/mL each) dissolved in DMEM/F12. […]
# DRG neuron potential changes were evaluated with FluoVolt, a voltage sensitive indicator dye (ThermoFisher, Cat #F10488). […]
smiles,measurement,setting,value
Nc1ncnc2c1ncn2[C@@H]1O[C@H](CO)[C@@H](O)[C@H]1O [adenosine],NGF-increased functional responses to capsaicin (Fura-2 average and peak intensity),"[1]; NGF 200 ng/mL 1 day, adenosine 5 μM for 5 min, capsaicin 100 nM",attenuated
same,"functional activity of DRG neurons (normalized peak intensity, calcium imaging)","[1]; initial screening, two different concentrations of adenosine, capsaicin stimulation",decreased
same,NGF-induced increase in membrane potential (FluoVolt),[2],attenuated
